Test results taken from patent US20110160252A1, “PHARMACEUTICAL COMPOSITIONS FOR TREATMENT OR PREVENTION OF HBV INFECTION” (priority 2008, published 2011).
pIC50: −log10 of the molar value. Where two headings read alike, the source gives them in different places.

Key:
[1] = test system: HBV strain B, L180M+M204V+T184L (Entecavir-resistant strain); assay: HBV propagation suppression in Huh-7 cells, strain B (Entecavir-resistant); format: cell-based; conditions: Hepatitis B virus, Huh-7, read-out: 50% propagation suppression
Description: (§1) FIG. 1B is a graph showing the effect of an agent on Huh-7 cells infected with various HBV strains. • A: highly Lamivudine-resistant strain, 50% propagation suppression=3.4 μM; • B: Entecavir-resistant strain, 50% propagation suppression=3.7 μM; • C: Lamivudine-resistant strain, 50% propagation suppression=3.6 μM; • Wild: wild-type strain, 50% propagation suppression=3.2
(§2) On the day before HBV infection, about 100,000 Huh-7 cells were plated in 12-well plates (FALCON, 353043) using culture medium DMEM (SIGMA, D6429).
(§3) On the day of infection, 50 μl of a homogenous mixture of 0.5 μg of HBV-DNA (described in “Sugiyama M, et al. HEPATOLOGY, Vol. 44: 915-924, 2006”), 1.5 μl of FUGENE6 (Roche Diagnostics; 11 814 443 001), 5 μl of SEAP, and 43 μl of OPTIMEM (Invitrogen; 31985) was added to the Huh-7 cells in each well. […]
(§4) HBV was quantified by measuring HBV-DNA using real-time PCR (Device used: Applied Biosystems, 4318157). […]
(§5) (SEQ ID NO: 2); and HBVSP2 has the sequence of: FAM-[…]-TAMRA (SEQ ID NO: 3)). […] HBV-DNA copy numbers were determined from the obtained fluorescent signals.
(§6) Furthermore, the effect of suppressing HBV propagation was assessed by the same method using Lamivudine- and Entecavir-resistant strains (A, L180M+M204V; B, L180M+M204V+T184L; C, M204V (YVDD)) as well as wild-type HBV strain (Wild).

[2] = test system: HBV (genotype C_AT; wild-type strain); assay: Anti-HBV effect on HBV-infected Huh-7 cells, HBV-DNA in supernatant by real-time PCR (wild-type strain); format: cell-based; conditions: Hepatitis B virus
Description: The present inventors assessed the anti-HBV effect of the compound represented by formula (III) on Huh-7 cells infected with HBV (genotype C_AT; wild-type strain).
as §2
On the day of infection, 50 μl of a homogenous mixture of 0.5 μg of HBV-DNA (described in “Sugiyama M, et al. HEPATOLOGY, Vol. 44: 915-924, 2006”), 1.5 μl of FUGENE6 (Roche Diagnostics; 11 814 443 001), 5 μl of SEAP, and 43 μl of OPTIMEM (Invitrogen; 31985) was added to the Huh-7 cells in each well. Then, the compound represented by formula (III) was added at a final concentration of 0, 3, 10, or 30 μM.
The cells were cultured at 37° C. under 5% CO2 for three days, and then culture supernatant was collected from each well. The supernatant was treated with deoxyribonuclease (DNase) to remove free DNA. […]
as §4, §5

[3] = test system: HBV strain C, M204V (YVDD) (Lamivudine-resistant strain); assay: HBV propagation suppression in Huh-7 cells, strain C (Lamivudine-resistant); format: cell-based; conditions: Hepatitis B virus, Huh-7, read-out: 50% propagation suppression
Description: as §1, §2, §3, §4, §5, §6

[4] = test system: HBV strain A, L180M+M204V (highly Lamivudine-resistant strain); assay: HBV propagation suppression in Huh-7 cells, strain A (highly Lamivudine-resistant); format: cell-based; conditions: Hepatitis B virus, Huh-7, read-out: 50% propagation suppression
Description: as §1, §2, §3, §4, §5, §6

[5] = test system: HBV (genotype C_AT; wild-type strain); assay: Virus titer in chimeric mice having human liver infected with genotype C_AT HBV (Example 4); format: in vivo, Hepatitis B virus; conditions: second week, formula (III) 5 mg/kg iv daily, PEG-IFN 30 μg/kg sc, ETV 0.02 mg/kg oral daily (FIG. 4)
Source text: (§7) Next, serum HBV was purified by the same method as described in Example 1, and HBV was quantified by measuring HBV-DNA using real-time PCR method. The sequences of primers HBSF2: 5′-CTTCATCCTGCTGCTATGCCT-3′[nt 406-426] (SEQ ID NO: 4) and HBSR2: 5′-AAAGCCCAGGATGATGGGAT-3′[nt 646-627] (SEQ ID NO: 5), and the sequence of TaqMan probe HBSP2 (nt 461-488) (5′-ATGTTGCCCGTTTGTCCTCTAATTCCA-3′ (SEQ ID NO: 6)) were the same as those described in the reference (Abe A, Inoue K, Tanaka T, Kato J, Kajiyama N, Kawaguchi R, Tanaka S, et al. Quantitation of hepatitis B virus genomic DNA by real-time detection PCR. J Clin Microbiol (1999) 37: 2899-2903).
(§8) The same test as described in Example 3 was carried out using chimeric mice (purchased from PhoenixBio Co., Ltd.) having human liver infected with HBV (genotype C_AT; wild-type strain). The compound represented by formula (III) was administered at 5 mg/kg (intravenous injection every day), while PEG-IFN was administered at 30 μg/kg (subcutaneous injection). Entecavir (ETV) was administered at 0.02 mg/kg (oral administration every day).

[6] = test system: genotype C HBV (L180M+S202G+M204V; ETV-resistant strain); assay: Virus titer in chimeric mice having human liver infected with ETV-resistant genotype C HBV (Example 5); format: in vivo, Hepatitis B virus; conditions: formula (III) 5 mg/kg iv daily, PEG-IFN 30 μg/kg sc, ETV 0.02 mg/kg oral daily (FIG. 5)
Source text: as §7
as §8, with “with genotype C” for “with”, “(L180M+S202G+M204V; ETV-resistant” for “(genotype C_AT; wild-type”

Row | Structure (SMILES) | pIC50 [1] | pIC50 ([2]; 72 h, Huh-7 cells, genotype C_AT wild-type HBV, three days culture, HBV-DNA in supernatant (FIG. 1A), read-out: 50%-inhibition concentration (IC50)) | pIC50 ([2]; Huh-7, read-out: 50% propagation suppression) | pIC50 [3] | pIC50 [4] | mean decrease of virus titer [5] [Log] | viral decrease [6] [Log]
1 | CC#CCOc1ccc(C[C@H](NC(=O)[C@@H](/C=C/CCCCCCC(=O)CCCCCCC)[C@@](O)(CC(=O)O)C(=O)O)C(=O)O)cc1 [compound represented by formula (III)] | 5.43 | ~5.52 | 5.49 | 5.44 | 5.47 | – | –
2 | C=C1[C@H](CO)[C@@H](O)C[C@@H]1n1cnc2c(=O)[nH]c(N)nc21 [ETV, Entecavir] | – | – | – | – | – | 1.4 | 0.3
